{"source": "patent US12678546B2", "about": "“Systems, methods, and apparatus for modeling and optimizing dialysis effects” (INNCELEREX, priority 2022, dated 2026)", "key": {"[1]": {"assay": "Ex-vivo simulated dialysis treatment (CRRT mimic) of bovine plasma containing creatinine", "type": "in vitro ADME", "details": "for Reduction in creatinine on the arterial side / Reduction in creatinine on the venous side / Total amount of creatinine in effluent, of total amount in the reservoir at time zero: at 60 minutes; for Change in creatinine concentration, venous vs. arterial side, mean over timepoints: the values are: percent change venous vs arterial; for C0 at 0 min: bovine, prior to starting ex-vivo dialysis, read-out: Starting creatinine concentration at time zero", "description": "FIG. 1 illustrates an exemplary system 100 and configuration for a simulated treatment on a drug or analyte of interest. The exemplary system 100 of FIG. 1 was designed and built to mimic Continuous Renal Replacement Therapy (CRRT). CRRT is a method of slower, continuous dialysis to allow solute and fluid homeostasis. CRRT […] intermittent hemodialysis and peritoneal dialysis. It is typically performed through pump-driven venovenous extracorporeal circuits and acts as renal support through blood purification to allow solute and fluid homeostasis. CRRT is often chosen for renal replacement in hemodynamically unstable patients, and it is often employed in the intensive care unit. With a slower rate of fluid removal, CRRT theoretically causes less hypotension than other dialysis techniques. Another advantage of CRRT for these patients is that they often require a large volume of fluid administration, including medications and parenteral nutrition, and CRRT can prevent an overloaded state.\nThe blood or plasma is introduced to the blood side 156 of the filter. Dialysate fluid that has no drug (nor analyte of interest) is pumped through the other side 157 of the filter. This process creates a movement of the analyte of interest from the blood side 156 of the filter to the dialysate side 157 and ultimately excretion into an effluent container 107 (simulating drug removal). The pumps 110, 111, 112, 113 are set at typical clinical levels (e.g., 300-500 mL/min) for pump speed and are optimized based on performance criteria (and by trial and error) for the specific treatment simulation.\nIn some embodiments, the system 100 is run for 1 hour, and during this time samples (500 μL each) are taken at the respective sample points 103, 104, 105, 106 at time 0, 10, 20, 30, 40 and 60 minutes after starting the pumps 110, 111, 112, 113. These samples are assayed for the analyte of interest. These are the numerical treatment simulation results that are used in silico (described below) to scale and to predict human dialysis situations (i.e., create a virtual patient) and also to extend the predictions to many other dialysis settings (e.g., different filter types, flow rates, type of fluids pumped in, etc.) that are used in different clinical conditions.\nAs shown in an exemplary algorithm and schematic of the invention in FIGS. 3A-3C, the treatment simulation and in-silico modeling, simulations, and extrapolation are used to determine the effects of dialysis on a drug or analyte of interest. In blocks A and B of FIG. 3A, bovine or human plasma or blood is spiked with a drug or an exogenous analyte existing in plasma or blood. In block C, pumps, tubing, flow rates, filters, temperature, pH, dialysis or replacement solutions and apparatus are configured to mimic a type of CRRT (Continuous Renal Replacement Therapy) or IHD (Intermittent Hemodialysis). In block D, the system is run for approximately 1-2 hours. In block E, multiple samples from different ports 103, 104, 105, 106 (arterial, venous, effluent, and blood/plasma reservoir) are taken during the treatment simulation and the sampling information is recorded. In block F, the samples for the drug/analyte collected are assayed. In block G, the amount of the drug that is removed by the treatment simulation is determined, and rate and ratio parameters for the drug removal from plasma or blood are calculated.\nOne analyte was creatinine used as control, and the other was drug X (a drug under development). The Cybernetic Dialysis™ system 200 measures how much of drug X and how much creatinine is removed by dialysis and (referring back to FIG. 1) includes water bath 101 with shaking tray with thermal control set at 37° C. […]"}, "[2]": {"assay": "Ex-vivo simulated dialysis treatment (CRRT mimic) of bovine plasma containing creatinine", "type": "in vitro ADME", "details": "HF1400 membrane; 5 min after start of ex-vivo dialysis"}, "[3]": {"details": "AN69 M150 membrane, 10 min after start of ex-vivo dialysis"}, "[4]": {"details": "AN69 M150 membrane, 20 min after start of ex-vivo dialysis"}, "[5]": {"details": "AN69 M150 membrane, 30 min after start of ex-vivo dialysis"}, "[6]": {"details": "AN69 M150 membrane, 40 min after start of ex-vivo dialysis"}, "[7]": {"details": "AN69 M150 membrane, 60 min after start of ex-vivo dialysis"}, "[8]": {"details": "HF1400 membrane, 10 min after start of ex-vivo dialysis"}, "[9]": {"details": "HF1400 membrane, 20 min after start of ex-vivo dialysis"}, "[10]": {"details": "HF1400 membrane, 30 min after start of ex-vivo dialysis"}, "[11]": {"details": "HF1400 membrane, 40 min after start of ex-vivo dialysis"}, "[12]": {"details": "HF1400 membrane, 60 min after start of ex-vivo dialysis"}}, "note": "Like-named read-outs stand apart in the source and are kept apart here.", "data": [{"smiles": "CN1CC(=O)NC1=N", "note": "[creatinine]", "values": [{"measurement": "Creatinine concentration, Arterial", "setting": "[1]; [3]", "value": 7.088, "unit": "µg/mL"}, {"measurement": "Creatinine concentration, Venous", "setting": "[1]; [3]", "value": 5.545, "unit": "µg/mL"}, {"measurement": "Creatinine concentration, Arterial", "setting": "[1]; [4]", "value": 6.53, "unit": "µg/mL"}, {"measurement": "Creatinine concentration, Venous", "setting": "[1]; [4]", "value": 5.216, "unit": "µg/mL"}, {"measurement": "Creatinine concentration, Arterial", "setting": "[1]; [5]", "value": 5.191, "unit": "µg/mL"}, {"measurement": "Creatinine concentration, Venous", "setting": "[1]; [5]", "value": 4.353, "unit": "µg/mL"}, {"measurement": "Creatinine concentration, Arterial", "setting": "[1]; [6]", "value": 4.145, "unit": "µg/mL"}, {"measurement": "Creatinine concentration, Venous", "setting": "[1]; [6]", "value": 3.706, "unit": "µg/mL"}, {"measurement": "Creatinine concentration, Arterial", "setting": "[1]; [7]", "value": 3.444, "unit": "µg/mL"}, {"measurement": "Creatinine concentration, Venous", "setting": "[1]; [7]", "value": 2.909, "unit": "µg/mL"}, {"measurement": "Reduction in creatinine on the arterial side", "setting": "[1]; AN69 M150 membrane", "value": 60, "unit": "%"}, {"measurement": "Creatinine concentration, Arterial", "setting": "[1]; AN69 M150 membrane, time point 0 min, bovine plasma", "value": 8.581, "unit": "µg/mL"}, {"measurement": "Creatinine concentration, Arterial", "setting": "[1]; [8]", "value": 8.306, "unit": "µg/mL"}, {"measurement": "Creatinine concentration, Venous", "setting": "[1]; [8]", "value": 6.355, "unit": "µg/mL"}, {"measurement": "Creatinine concentration, Arterial", "setting": "[1]; [9]", "value": 6.174, "unit": "µg/mL"}, {"measurement": "Creatinine concentration, Venous", "setting": "[1]; [9]", "value": 5.052, "unit": "µg/mL"}, {"measurement": "Creatinine concentration, Arterial", "setting": "[1]; [10]", "value": 5.857, "unit": "µg/mL"}, {"measurement": "Creatinine concentration, Venous", "setting": "[1]; [10]", "value": 4.214, "unit": "µg/mL"}, {"measurement": "Creatinine concentration, Arterial", "setting": "[1]; [11]", "value": 5.261, "unit": "µg/mL"}, {"measurement": "Creatinine concentration, Venous", "setting": "[1]; [11]", "value": 3.782, "unit": "µg/mL"}, {"measurement": "Creatinine concentration, Arterial", "setting": "[1]; [12]", "value": 3.82, "unit": "µg/mL"}, {"measurement": "Creatinine concentration, Venous", "setting": "[1]; [12]", "value": 3.18, "unit": "µg/mL"}, {"measurement": "Change in creatinine concentration, venous vs. arterial side, mean over timepoints", "setting": "[1]; HF1400 membrane, FIG. 7", "value": -25.4, "unit": "%"}, {"measurement": "Reduction in creatinine on the arterial side", "setting": "[1]; HF1400 membrane", "value": 56, "unit": "%"}, {"measurement": "Reduction in creatinine on the venous side", "setting": "[1]; HF1400 membrane", "value": 63, "unit": "%"}, {"measurement": "Total amount of creatinine in effluent, of total amount in the reservoir at time zero", "setting": "[1]; HF1400 membrane", "value": 66.3, "unit": "%"}, {"measurement": "Creatinine concentration, Arterial", "setting": "[1]; HF1400 membrane, time point 0 min, bovine plasma", "value": 8.581, "unit": "µg/mL"}, {"measurement": "Change in creatinine concentration, venous vs. arterial side, mean over timepoints", "setting": "[1]; M150 AN69 membrane, FIG. 5", "value": -16.8, "unit": "%"}, {"measurement": "Reduction in creatinine on the venous side", "setting": "[1]; M150 AN69 membrane", "value": 66, "unit": "%"}, {"measurement": "Total amount of creatinine in effluent, of total amount in the reservoir at time zero", "setting": "[1]; M150 AN69 membrane", "value": 68.0, "unit": "%"}, {"measurement": "Total amount of creatinine (at time zero) remaining in the membrane cartridge and associated tubing", "setting": "[1]; both membrane types (M150 AN69 and HF1400)", "value": "about 5%"}, {"measurement": "C0 at 0 min", "setting": "[1]; AN69 M150 membrane", "value": 8370, "unit": "ng/mL"}, {"measurement": "C0 at 0 min", "setting": "[1]; HF1400 membrane", "value": 8580, "unit": "ng/mL"}, {"measurement": "Creatinine concentration, Arterial", "setting": "[2]", "value": 8.675, "unit": "µg/mL"}, {"measurement": "Creatinine concentration, Venous", "setting": "[2]", "value": 5.41, "unit": "µg/mL"}]}]}
